Here are results for 2 compounds from US9446043B2, “Pharmaceutical combinations” (Novartis AG, priority 2012, dated 2016).

The subject of test [1] is 92.1 uveal melanoma cell line (GNAQ mutation). As to the kind of experiment: Proliferation measurement by xCELLigence. In kind it is cell-based, human. The note with it: 92.1 cells, 0.5 μM per compound, 6 days. The protocol:
(§1) 92.1 and OMM-1 uveal melanoma cell lines were cultured in Roswell Park Memorial Institute medium (RPMI 1640) (American Type Culture Collection (ATCC #30-2001)) supplemented with 10% fetal bovine serum and incubated at 37° C./5% carbon dioxide.
(§2) Compound stocks of 3-(1H-indol-3-yl)-4-[2-(4-methyl-piperazin-1-yl)-quinazolin-4-yl]-1H-pyrrole-2,5-dione, hereafter AEB071, and of 6-(4-bromo-2-fluorophenylamino)-7-fluoro-3-methyl-3H-benzoimidazole-5-carboxylic acid (2-hydroxyethoxy)-amide, hereafter COMPOUND B, were prepared in dimethylsulfoxide (DMSO) at a final concentration of 10 mM.
(§3) Growth of uveal cells was continuously monitored with the xCELLigence real-time cell analyzer. E-plates (Roche #05 232 368 001) were incubated with cells added at a final concentration of 3000 cells per 100 μl per well. Impedance was measured every 2 hours for 24 hours. […] Impedance was measured every 2 hours over 7 days. Data was normalized to day 0 prior to compound addition.
(§4) The effect of 3-(1H-indol-3-yl)-4-[2-(4-methyl-piperazin-1-yl)-quinazolin-4-yl]-1H-pyrrole-2,5-dione (COMPOUND A) and 6-(4-bromo-2-fluorophenylamino)-7-fluoro-3-methyl-3H-benzoimidazole-5-carboxylic acid (2-hydroxyethoxy)-amide (COMPOUND B) on uveal melanoma proliferation in vitro is shown (FIG. 1).

Test [2] deals with pERK1/2. As to the kind of experiment: Protein immunoblot following drug treatment of uveal melanoma cell lines. In kind it is cell-based, human. The note with it: 92.1 and OMM-1 cells. The protocol: (§5) Uveal melanoma cells were incubated with 0.5 μM AEB071, 0.5 μM COMPOUND B, both compounds or DMSO alone. Cells were lysed after 2, 4, 8, 24 or 48 hours of treatment in M-PER mammalian protein extraction buffer containing PhosStop Phosphatase inhibitor cocktail tablet (Roche Diagnostics #04 906 837 001) and Complete Protease Inhibitor cocktail tablet (Roche Diagnostics #11 836 145 001). Proteins were separated on a 4-12% Bis-Tris NuPAGE SDS gel (Invitrogen #WG1403Bx10) and subsequently transferred to a nitrocellulose membrane using a dry blotting system (Invitrogen iBLOT). Proteins were detected with 1:1000 dilutions of anti-p44/42 MAPK (Cell Signaling Technologies #4377), anti-pMARCKS (Cell Signaling Technologies #2741), anti-pMEK1/2 (Cell Signaling Technologies #9121) and anti-Beta Actin (Ambion#AM4202). Beta actin was detected using the appropriate secondary antibody and an infrared dye detection system (Odyssey IRDye, LI-COR) according to the manufacturer's protocol. All other proteins were detected using an anti-rabbit-HRP secondary antibody and developed with SuperSignal West Dura Chemiluminescent Substrate (Thermo Scientific #34076) on a Syngene imaging system.
(§6) The biochemical effect of these agents was assessed following treatment with 0.5 μM AEBO071, 0.5 μM COMPOUND B or 0.5 μM of each agent together in the uveal melanoma cell lines 92.1 and OMM-1. The level of pMARCKS was attenuated (FIG. 3). […] The combination of AEB071 and COMPOUND B suppressed pathway components to a greater magnitude and duration compared to either single agent.
In general terms: A western blot detects proteins with antibodies after separation by electrophoresis.

Test [3] concerns pMEK1/2. Described as above. In kind it is cell-based, human. The note with it: 92.1 and OMM-1 cells, 0.5 μM per agent, over time, clearly observed at 48 hours. The protocol: as §5, §6
The subject of test [4] is 92.1 human uveal melanoma xenograft (GNAQ mutation). Description: In vivo activity in the 92.1 human uveal melanoma nude mouse xenograft model. The protocol: NVP-AEB071 (also referred to as AEB071) (acetate salt, 87.96% free base) powder was added to 20% polyethyleneglycol 400 (PEG400): 4.5% 0.1M HCl: 75.5% of 5% dextrose in water (D5W), designated as Vehicle 1, and stirred to obtain a clear red solution. NVP-COMPOUND B (also referred to as COMPOUND B) was formulated as a homogenous suspension in 1% carboxymethyl cellulose: 0.5% Tween® 80 in deionized water. A fresh suspension was prepared once per week for each compound and stored at 4° C.
The animals were fed ad libitum water (reverse osmosis, 1 ppm Cl) and NIH 31 Modified and Irradiated Lab Diet® consisting of 18.0% crude protein, 5.0% crude fat, and 5.0% crude fiber. The mice were housed on irradiated Enrich-O'Cobs™ Laboratory Animal Bedding in static microisolators on a 12-hour light cycle at 20-22° C. (68-72° F.) and 40-60% humidity. DRS-NC specifically complies with the recommendations of the Guide for Care and Use of Laboratory Animals with respect to restraint, husbandry, surgical procedures, feed and fluid regulation, and veterinary care. The animal program at DRS-NC is accredited by the Association for Assessment and Accreditation of Laboratory Animal Care (AAALAC) International, which assures compliance with accepted standards for the care and use of laboratory animals.
The 92.1 uveal melanoma cells were harvested during exponential growth, and re-suspended in cold PBS (phosphate buffered saline) with 50% Matrigel™ (BD Biosciences). Each mouse was inoculated subcutaneously in the right flank with 5×10^6 cells (0.2 mL of cell suspension). Tumors were calipered in two dimensions to monitor growth as their mean volume approached the desired 100-150 mm^3 range. Tumor size, in mm^3, was calculated from: Tumor Volume=(w^2×l)/2 where w=width and l=length, in mm, of the tumor. Tumor weight could be estimated with the assumption that 1 mg was equivalent to 1 mm^3 of tumor volume. Twelve days after tumor cell implantation, on Day 1 (D1) of the study, animals with individual tumor volumes of 108-256 mm^3 were sorted into six groups (n=10/group) with group mean tumor volumes of 153-159 mm^3.
AEB071 was administered at 91 mg/kg three times daily (TID) dosing for 21 days. Efficacy was determined from tumor growth inhibition on day 17, the last day with all mice on the study. The activity was calculated at tumor/control (T/C), the percent mean tumor volume change from day 1 to day 17 in drug treated mice (ΔT) versus vehicle treated mice, or as a T/T0, the percent reduction in the group mean tumor volume from day 1. […] Addition of COMPOUND B dosed twice daily at 3.5 mg/kg to the AEB071 regimen yielded a −22% T−T0 (p<0.001 median activity, but not significant compared to AEB071 alone). COMPOUND B had no activity in its own right with a T/C of 84%.
Mice were dosed for 21 days, then treatment ceased and tumor outgrowth was monitored. […] Tumor growth delay was not calculated because two or more tumors per group became static after an initial growth period, but the trend of tumor outgrowth rate indicated the AEB071 plus COMPOUND B combination tumors grew out slower than AEB071 single agent, COMPOUND B single agent treated tumors were not monitored due to lack of efficacy.
The effectiveness of the combination increased in a dose dependent manner, with increasing AEB071 dose in combination with COMPOUND B yielding a greater magnitude of response. AEB071 was administered at […] and 22.74 mg/kg, (equivalent to 80, 40 and 20 mg/kg free base) with three times daily dosing (TID) for 21 days in combination with COMPOUND B at 3.5 mg/kg with twice daily dosing in the 92.1 human uveal melanoma nude mouse xenograft model. Efficacy was determined from tumor growth inhibition on day 22. The activity was calculated at tumor/control (T/C), the percent mean tumor volume change from day 1 to day 22 in drug treated mice (ΔT) versus vehicle treated mice, or as a T/T0, the percent reduction in the group mean tumor volume from day 1. […]

The test system of test [5] is 92.1 uveal melanoma cell line. As to the kind of experiment: Cell proliferation in combination dose matrix (Cell Titer Glo, Chalice). In kind it is cell-based, human. The conditions noted are these: 92.1 cells; for anti-proliferative response in dose matrix: 0.039 μM to 10 μM; for inhibition at 0.16 µM: Homo sapiens, 0.16 μM of each agent, 144 hours, Cell Titer Glo, read-out: growth inhibition (FIG. 2, top panel). The method, then:
Cells were seeded at a density of 3000 cells per 100 μl of medium per well in 96-well plates (Costar #3904) and incubated overnight prior to compound addition. Compound stock was freshly prepared in the appropriate culture medium and manually added to the plates by electronic multichannel pipette in three replicates. Cells were treated with compound alone or with a combination of AEB071 and COMPOUND B diluted 1:2 for a ten point dilution ranging from 0.039 μM to 10 μM. The viability of cells was assessed at the time of compound addition and after 144 hours of treatment by quantification of cellular ATP levels via Cell Titer Glo (Promega #G7571) according to the manufacturer's protocol. Plates were read on a luminescence plate reader (Victor X4, Perkin Elmer). Fractional inhibition of growth was calculated using XLfit and normalized to no compound wells. For growth inhibition, day 0 values were subtracted before calculating inhibition. Data was analyzed by Chalice software
(http://chalice.zalicus.com/documentation/analyzer/index.jsp) to calculate growth inhibition, inhibition and HSA excess.
FIG. 2 provides a closer look at the patterns of synergy between the two agents in the 92.1 cell line. The dose matrix between the two agents is shown; the effect on cell growth relative to untreated cells is shown in the top panel, the excess inhibition (HSA) in the center panel and the growth inhibition relative to day zero normalization is shown in the bottom panel. Methods of calculations for growth inhibition, inhibition and HSA excess are known in the art.
Inhibition and excess inhibition values for all dose combinations can be seen in FIG. 2. The growth rate of the cells during the […] assay was taken into account for the calculation of growth inhibition percent shown in FIG. 2, bottom panel. 100% indicated stasis, meaning the cells had neither grown nor died during the course of the assay, values in excess of 100 indicate death, 200 being complete cell death, and values below 100 indication growth from the start of the assay to the day 3 end point.
In general terms: ATP-based viability assays read luminescence as a measure of living cells.

Test [6] concerns OMM1 uveal melanoma cell line (GNA11 mutation). Description: Proliferation measurement by xCELLigence. Format: cell-based. The note with it: OMM1 cells, 0.5 μM per compound, 6 days. The method, then:
as §1, §2, §3, §4

The subject of test [7] is pMARCKS. As to the kind of experiment: Protein immunoblot following drug treatment of uveal melanoma cell lines. In kind it is cell-based, human. The note with it: 92.1 and OMM-1 cells, 0.5 μM per agent, 2-48 hours. The protocol: as §5, with “system. The biochemical effect of these agents was assessed following treatment with 0.5 μM AEBO071, 0.5 μM COMPOUND B or 0.5 μM of each agent together in the uveal melanoma cell lines 92.1 and OMM-1. […]” for “system.”

As a reminder, the inhibition is the share of the control response that was lost under treatment. As for `Cn1cnc2c(F)c(Nc3ccc(Br)cc3F)c(C(=O)NOCCO)cc21` [COMPOUND B, 6-(4-bromo-2-fluorophenylamino)-7-fluoro-3-methyl-3H-benzoimidazole-5-carboxylic acid (2-hydroxyethoxy)-amide], the “effect on growth of uveal melanoma cell line (xCELLigence)” value in test [1] and in test [6] was “modest effect” throughout. The pERK1/2 levels result in test [2] (0.5 μM per agent, seen at 2 hrs, time course 2-48 hours) is recorded as “reduction in pERK1/2 levels”. Further, the “pERK1/2 expression by 24 hours” value in test [2] (0.5 μM, 24 hours) was “beginning to return”. The pMEK1/2 expression result in test [3] is recorded as “induction of pMEK1/2 expression”. The “T/C (tumor/control)” value in test [4] (COMPOUND B 3.5 mg/kg twice daily, day 17) came to 84%; in test [4] (COMPOUND B 3.5 mg/kg twice daily, day 22), 56%. Further, in test [5], the “anti-proliferative response in dose matrix” value is given as “active”. In test [5], the inhibition at 0.16 µM was found to be 57%.

As to `CN1CCN(c2nc(C3=C(c4c[nH]c5ccccc45)C(=O)NC3=O)c3ccccc3n2)CC1` [AEB071, 3-(1H-indol-3-yl)-4-[2-(4-methyl-piperazin-1-yl)-quinazolin-4-yl]-1H-pyrrole-2,5-dione], the “effect on growth of uveal melanoma cell line (xCELLigence)” value in test [1] and in test [6] was “delayed cell growth” throughout. Moreover, the “mean tumor response during the dosing period” value in test [4] (21 days dosing (FIG. 5)) was “near complete mean tumor stasis”. The “T/C (tumor/control)” value in test [4] (AEB071 22.7 mg/kg (20 mg/kg free base) TID for 21 days, day 22, non-significant) came to 92%; in test [4] (AEB071 45.5 mg/kg (40 mg/kg free base) TID for 21 days, day 22, non-significant), 52%; in test [4] (AEB071 90.95 mg/kg (80 mg/kg free base) TID for 21 days, day 22, p<0.05), 18%; in test [4] (AEB071 (acetate salt) 91 mg/kg TID for 21 days, day 17, p<0.01), 3%. In test [4] (two weeks following the 21 day dosing period, followed >70 days (FIG. 5)), the “tumor progression after the dosing period” value is given as “progressed at the control pace”. Moreover, the “anti-proliferative response in dose matrix” value in test [5] is reported as “active”. Further, the inhibition at 0.16 µM in test [5] was determined as 19%. Also, the “level of pMARCKS” value in test [7] is given as “attenuated”.
